Experimental data taken from patent publication US4246343A, “Microbial detection and enumeration method and apparatus” (University of Virginia and National Aeronautics & Space …, priority 1979, dated 1981).
Where a name gives a salt, the structure may show the parent alone. Read-outs that look alike come from different tables or passages of the source.

Key:
S. aureus (ATCC) = assay: Electroanalytically determined MIC, gram-positive bacteria; assay type: cell-based, "Seattle Strain" ATCC 25923; conditions: Staphylococcus aureus, 24 h
Description: (§1) Identical lots of media and antimicrobial agents were used in the susceptibility tests performed. The media used were trypticase soy agar (TSA) and TSB from Baltimore Biological Laboratories (BBL), Cockeysville, Maryland. The 12 antimicrobial agents used in the experiments, which were chosen on the basis of their clinical usefulness, were laboratory reference standards including the following antibiotics: penicillin G potassium, caphalothin sodium, tobramycin, vancomycin hydrochloride and streptomycin sulfate obtained from Eli Lilly and Co.; tetracycline and carbenicillin obtained from Pfizer Laboratories; ampicillin and sodium nafcillin from Wyeth Laboratories; kanamycin and methicillin from Bristol Laboratories; gentamicin from Schering.
(§2) The following cultures were obtained from Hoffmann-LaRoche, Inc. and were derived from the American Type Culture Collection (ATCC) organisms as indicated: Escherichia coli, "Seattle Strain" ATCC 25922, Klebsiella pneumoniae ATCC 27736; Pseudomonas aeruginosa, ATCC 9721. These bacteria are gram negative bacteria. The following bacteria are gram positive: Staphylococcus aureus, "Seattle Strain" ATCC 25923; Staphylococcus epiderdimis ATCC 14990; and Streptococcus pyogenes, ATCC 10389. In addition, clinical specimens of these same six organisms were obtained from sensitivity isolates from the University of Virginia Hospital Department of Clinical Pathology Bacteriology Section. These organisms, both pathogenic and non-pathogenic (Staphylococcus epidermidis), were chosen because they are some of the most frequently encountered organisms in clinical isolates.
(§3) Inocula were prepared by making a 100-fold dilution×2 of an overnight TSB culture of the organism to be tested in sterile TSB prewarmed to 35° C. Thus, the total dilution of overnight stock was 10^-4. From the 10^-4 series, 0.3 ml was transferred to a test tube (Falcon, disposable #2057) containing 2.7 ml of TSB if the growth control, or 2.6 ml of TSB plus 0.1 ml of a particular concentration of an appropriate antibiotic to be tested. The antibiotic was weighed on an analytical balance, according to each agent's activity standard, and diluted with sterile distilled water in a volumetric flask to achieve a stock solution of 1000 mcg/ml which was then frozen in small aliquots. Further dilutions as necessary for susceptibility testing were also achieved through the addition of sterile distilled water to this stock concentration. Viable counts were made by plating appropriate dilutions from the 10^-4 series on TSA and counting colonies after 24 hours incubation at 35° C. Viable counts were also made on each microorganism at the time of MDC and again at the end of the 24 hour test period to confirm the minimum inhibitory concentration (MIC).
(§4) The experimental apparatus used in this study to monitor the inhibition of growth due to the addition of antibiotics consisted of test tubes, up to and including 8, size 17×100 mm, each containing a sterilized (by boiling) Pt-SCE combination electrode (Sargent-Welch, S-30101-15), plus TSB, microorganisms, and antibiotic where appropriate, positioned in a 35° C. heating block. Leads from the electrode were connected to a high impedance (greater than 10^8 ohms) potentiometer, or voltage following device, which in turn was connected to a strip chart recorder (Hewlett-Packard type 680M). Microbial growth was measured by an increase in voltage in the negative direction with time as recorded on the strip chart recorder.
(§5) FIG. 12 is a stripchart recording of the antimicrobial response curve of a four channeled expriment involving a clinical specimen of the non-hydrogenproducing, Gram-positive bacteria Staphylococcus epidermidis treated with 0.012, 0.5 and 1.0 mcg/ml of the antibiotic ampicillin as shown in curves B, C and D respectively. […]

S. epidermidis (ATCC) = assay: as above; assay type: cell-based, Staphylococcus epiderdimis ATCC 14990; conditions: Staphylococcus epidermidis, 24 h
Description: as §1, §2, §3, §4, §5

[1] = tested on: S. epidermidis (clinical); assay: Electroanalytically determined MIC / antimicrobial response curve, gram-positive bacteria; assay type: cell-based, Staphylococcus epidermidis; conditions: Staphylococcus epidermidis, 24 h
Description: as §1, §2, §3, §4, §5

S. aureus (clinical) = assay: Electroanalytically determined MIC, gram-positive bacteria; assay type: cell-based; conditions: Staphylococcus aureus, 24 h
Description: as §1, §2, §3, §4, §5

S. pyogenes (ATCC) = assay: as above; assay type: cell-based, ATCC 10389; conditions: Streptococcus pyogenes, 24 h
Description: as §1, with “Schering. […]” for “Schering.”
as §4, with “Leads from the electrode were connected to a high impedance (greater than 10^8 ohms) potentiometer, or voltage following device, which in turn was connected to a strip chart recorder (Hewlett-Packard type 680M).” left out, “recorder. […]” for “recorder.”

E. coli (clinical) = assay: Electroanalytically determined MIC, gram-negative bacteria; assay type: cell-based, Escherichia coli
Description: as §1, §2, §3, §4, §5

E. coli (ATCC) = assay: as above; assay type: cell-based, Escherichia coli, "Seattle Strain" ATCC 25922
Description: as §1, §2, §3, §4, §5

K. pneumoniae (ATCC) = assay: Electroanalytically determined MIC / antimicrobial response curve, gram-negative bacteria; assay type: cell-based, Klebsiella pneumoniae ATCC 27736
Description: as §1, §2, §3, §4, §5

K. pneumoniae (clinical) = assay: Electroanalytically determined MIC, gram-negative bacteria; assay type: cell-based, Klebsiella pneumoniae
Description: as §1, §2, §3
as §4, with “recorder. […]” for “recorder.”

S. pyogenes (clinical) = assay: Electroanalytically determined MIC, gram-positive bacteria; assay type: cell-based; conditions: Streptococcus pyogenes, 24 h
Description: as §1, §2, §3, §4, §5

P. aeruginosa (ATCC) = assay: Electroanalytically determined MIC, gram-negative bacteria; assay type: cell-based, Pseudomonas aeruginosa, ATCC 9721
Description: as §1, §2, §3, §4, §5

P. aeruginosa (clinical) = assay: as above; assay type: cell-based, Pseudomonas aeruginosa
Description: as §1, §2, §3, §4, §5

Row | Compound | MIC (S. aureus (ATCC)) | MIC (S. epidermidis (ATCC)) | MIC [1] | MIC (S. aureus (clinical)) | MIC (S. pyogenes (ATCC)) | MIC (E. coli (clinical); Escherichia coli, 24 h) | MIC (E. coli (ATCC); Escherichia coli, 24 h) | MIC (K. pneumoniae (ATCC); Klebsiella pneumoniae, 24 h) | MIC (K. pneumoniae (clinical); Klebsiella pneumoniae, 24 h) | MIC (S. pyogenes (clinical)) | also measured
1 | CC1(C)S[C@@H]2[C@H](NC(=O)Cc3ccccc3)C(=O)N2[C@H]1C(=O)O [Pen G, penicillin G potassium] | 0.05 µg/mL | 0.08 to 0.1 µg/mL | 0.1 µg/mL | 0.05 µg/mL | – | – | – | – | – | – | –
2 | [H]/N=C(/N)N[C@H]1[C@H](O)[C@@H](O)[C@H](O[C@@H]2O[C@@H](C)[C@](O)(C=O)[C@H]2O[C@@H]2O[C@@H](CO)[C@H](O)[C@@H](O)[C@@H]2NC)[C@@H](N/C(N)=N\[H])[C@@H]1O [Strep, streptomycin sulfate] | 8 µg/mL | 4 µg/mL | 4 to 6 µg/mL | 8 µg/mL | 0.1 µg/mL | 9 µg/mL | 9 µg/mL | 5 to 6 µg/mL | 6 µg/mL | 0.1 µg/mL | –
3 | CN(C)[C@@H]1C(=O)C(C(N)=O)=C(O)[C@@]2(O)C(=O)C3=C(O)c4c(O)cccc4[C@@](C)(O)[C@H]3C[C@@H]12 [Tetra, tetracycline] | 2 µg/mL | 1 to 2 µg/mL | 2 µg/mL | 2 µg/mL | – | 4 µg/mL | 1 µg/mL | 5 to 6 µg/mL | 5 to 6 µg/mL | – | MIC (P. aeruginosa (ATCC); Pseudomonas aeruginosa, 24 h): 64 µg/mL; MIC (P. aeruginosa (clinical); Pseudomonas aeruginosa, 24 h): 64 µg/mL
4 | NC[C@H]1O[C@H](O[C@H]2[C@H](O)[C@@H](O[C@H]3O[C@H](CO)[C@@H](O)[C@H](N)[C@H]3O)[C@H](N)C[C@@H]2N)[C@H](N)C[C@@H]1O [Tobra, tobramycin] | – | – | – | – | – | – | – | – | – | – | MIC (P. aeruginosa (ATCC); Pseudomonas aeruginosa, P. aeruginosa (ATCC), TSB, 35° C., 24 hour test period, read-out: MIC): 4 µg/mL; MIC (P. aeruginosa (clinical); Pseudomonas aeruginosa, P. aeruginosa (clinical), TSB, 35° C., 24 hour test period, read-out: MIC): 8 µg/mL
5 | CN[C@H](CC(C)C)C(=O)N[C@H]1C(=O)N[C@@H](CC(N)=O)C(=O)N[C@H]2C(=O)N[C@H]3C(=O)N[C@H](C(=O)N[C@H](C(=O)O)c4cc(O)cc(O)c4-c4cc3ccc4O)[C@H](O)c3ccc(c(Cl)c3)Oc3cc2cc(c3O[C@@H]2O[C@H](CO)[C@@H](O)[C@H](O)[C@H]2O[C@H]2C[C@](C)(N)[C@H](O)[C@H](C)O2)Oc2ccc(cc2Cl)[C@H]1O [Vanco, vancomycin hydrochloride] | 1 µg/mL | 1.5 µg/mL | 2 to 3 µg/mL | 2 µg/mL | 0.1 to 0.5 µg/mL | – | – | – | – | 0.5 µg/mL | –
6 | gentamicin | – | – | – | – | – | – | – | – | – | – | MIC (P. aeruginosa (ATCC); P. aeruginosa (ATCC), TSB, 35° C., 24 hour test period): 2.0 µg/mL; MIC (E. coli (clinical); E. coli (clinical), TSB, 35° C., 24 hour test period): 1.0 µg/mL; MIC (P. aeruginosa (clinical); P. aeruginosa (clinical), TSB, 35° C., 24 hour test period): 4.0 µg/mL; MIC (E. coli (ATCC); E. coli (ATCC), TSB, 35° C., 24 hour test period): 0.5 µg/mL; MIC (K. pneumoniae (ATCC); K. pneumoniae (ATCC), TSB, 35° C., 24 hour test period): 0.5 µg/mL; MIC (K. pneumoniae (clinical); K. pneumoniae (clinical), TSB, 35° C., 24 hour test period): 0.5 µg/mL
